Source: publication PMC6895199, “A new antiviral scaffold for human norovirus identified with computer-aided approaches on the viral polymerase” (Scientific Reports, 2019)
Like-named read-outs stand apart in the source and are kept apart here.

Assays:
[1] = Cytotoxicity by the MTS method on uninfected cells; format: cell-based; settings: mouse, uninfected RAW 264.7 cells, Table 2, at least three independent experiments
Procedure: Cytotoxicity: The cytotoxicity of the Compounds was evaluated by the MTS method, by exposing uninfected cells to the same concentrations of compounds for 3 days. The %cell viability was calculated as (ODtreated/ODCC) × 100, where ODCC is the OD of uninfected untreated cells and ODtreated are uninfected cells treated with compound. The CC50 was defined as the compound concentration that reduces the number of viable cells by 50%[34].

[2] = test system: HuNoV GI.1 replicon; assay: HuNoV GI replicon assay (HGT-NV cells, qRT-PCR); format: cell-based, human norovirus GI.1
Procedure: Given that in this system the gene encoding for the major capsid protein is replaced by a neomycin resistance gene, no new virus particles will be produced but the non-structural proteins are expressed and the replication of the genomic RNA can be studied.
Cells and virus: MNV (virus strain MNV-1.CW1) was propagated in RAW 264.7 cells grown in DMEM (Life Technologies, Gent, Belgium) supplemented with 10% or 2% FBS, 2 mM L-glutamine, 20 mM HEPES, 0.075 g/L sodium bicarbonate, 1 mM sodium pyruvate, 100 U penicillin/mL and 100 µg/mL streptomycin at 37 °C in a humidified atmosphere of 5% CO2. The human norovirus GI.1 replicon harboring gastric tumor-1 cell line (HGT-NV) (kindly provided by Dr. Ian Goodfellow, University of Cambridge) was maintained in DMEM supplemented with 10% FBS, 2mM L-glutamine, 0.075 g/L sodium bicarbonate and 1.0 mg/ml of Geneticin (G418; Life Technologies), at 37 °C in a humidified atmosphere of 5% CO2[34].
Antiviral assay with the HGT-NV replicon: The inhibitory effect of Compounds on human norovirus replication was assessed by quantification of the levels of HuNoV GI replicon RNA and of the reference (housekeeping) gene β-actin mRNA [by quantitative reverse transcription polymerase chain reaction (qRT-PCR)]. To this end, HGT cells (2000 cells/well) were seeded in 96-well plates, in complete DMEM without the selection marker G418. Following an incubation period of 24 h, a serial dilution of rupintrivir was added to the cultures. After 72 h of incubation, cell monolayers were washed with phosphate-buffered saline (PBS) and collected for quantification of RNA load by qRT-PCR. Intracellular RNA was extracted from cells using the cell-to-cDNA lysis buffer (Ambion, Life Technologies). For detection of HuNoV GI replicon RNA, forward (5′-CCG GCT ACC TGC CCA TTC-3′), reverse (5′-CCAGATCATCCTGATCGACAAG-3′) primers and probe (5′-FAM-ACATCGCATCGAGCGAGCACGTAC-TAMRA-3′) for the neomycin gene were used. For detection of β-actin mRNA, forward (5′-GGCATCCACGAAACTACCTT-3′), reverse (5′-AGCACTGTGTTGGCGTACAG-3′) primers and probe (5′-HEX-ATCATGAAGTGTGACGTGGACATCCG-BHQ1–3′) were used. One-step qRT-PCR was performed in a 20 µL reaction mixture containing 10 µl 2X iTaq Universal SYBR® Green one step reaction mix (Bio-rad, California, USA), 5.17 µl RNAse free water, 0.5 µl of iScript reverse transcriptase (Bio-rad, California, USA), 4 µl of the template RNA and either 300 nM of HuNoV GI replicon primers and probe, 300 nM of β-actin primers and 200 nM of probe. Cycling conditions were: reverse transcription at 50 °C for 10 min, initial denaturation at 95 °C for 3 min, followed by 40 cycles of denaturation at 95 °C for 15 s, annealing and extension at 60 °C for 30 seconds (Roche Lightcycler®96, Roche Diagnostics, Belgium). To determine the relative expression levels of HuNoV GI replicon RNA, β-actin was used as a normalizer and ratios were calculated using the Pfaffl method. The Expression Ratio (HuNoV GI Replicon/β-actin) was calculated as: Expression Ratio = (E HuNoV)^ΔCT, HuNoV (CC – TC)/(Eβ-actin)^ΔCT, β-actin (CC – TC), where E HuNoV and Eβ-actin represent the amplification efficiency (E = 10^–1/slope) for the HuNoV GI replicon and β-actin qRT-PCR reactions, respectively. ΔCT, HuNoV (CC – TC) is the Ct of untreated control cells (CC) minus the Ct of cells treated with a compound concentration (TC) obtained with HuNoV GI replicon primers and probe. ΔCT, β-actin (CC – TC) is the Ct of untreated control cells (CC) minus the Ct of cells treated with a compound concentration (TC) obtained with β-actin primers and probe. Efficiency values (E HuNoV and Eβ-actin) were determined for each qRT-PCR reaction.

[3] = HuNoV GI replicon in HGT-1 cells, 72 h, replicon RNA by qRT-PCR
[4] = Norwalk virus, HGT-1, 72 h, read-out: EC50 values (column head printed 'M'), HuNoV GI replicon in HGT-1 cells, replicon RNA by qRT-PCR

SMILES: O=C(NC(=S)Nc1ccc(N2CCN(C(=O)c3cccs3)CC2)cc1)c1sc2ccccc2c1Cl [Compound 48, 3-Chloro-N-((4-(4-(thiophene-2-carbonyl)piperazin-1-yl)phenyl)carbamothioyl)benzo[b]thiophene-2-carboxamide, reference compound]
- CC50 at 3 days [1]: > 100 µM
- EC50 values (column head printed 'M') [2, 3]: do not display any significant antiviral activity
- EC50 [2, 4]: > 100 µM

SMILES: Cc1ccc(C(=O)NC(=S)Nc2ccc(N3CCN(C(=O)c4cccs4)CC3)cc2)cc1 [Compound 52, 4-Methyl-N-((4-(4-(thiophene-2-carbonyl)piperazin-1-yl)phenyl)carbamothioyl)benzamide]
- CC50 at 3 days [1]: > 100 µM
- EC50 values (column head printed 'M') [2, 3]: low micromolar range
- EC50 [2, 4]: 6 µM
- EC50 ([2]; read-out: EC50 values (column head printed 'M'), HuNoV GI replicon in HGT-1 cells, 72 h, replicon RNA by qRT-PCR): 6.1 ± 3.9 µM

SMILES: O=C(NC(=S)Nc1ccc(N2CCN(C(=O)c3nccs3)CC2)cc1)c1sc2ccccc2c1Cl [Compound 56, 3-Chloro-N-((4-(4-(thiazole-2-carbonyl)piperazin-1-yl)phenyl)carbamothioyl)benzo[b]thiophene-2-carboxamide]
- CC50 at 3 days [1]: > 100 µM
- EC50 values (column head printed 'M') [2, 3]: do not display any significant antiviral activity
- EC50 [2, 4]: > 100 µM
